Measurements: paper PMC6320911, “Discovery of a Natural Syk Inhibitor from Chinese Medicine through a Docking-Based Virtual Screening and Biological Assay Study” (Molecules, 2018)

Target: T1, Spleen tyrosine kinase (Syk) (Homo sapiens, UniProt P43405)
T1 construct: Syk (ab60886)
Experiment: ADP-Glo luminescent kinase assay with dose-response ([…] ATP in substrate solution, poly Glu:Tyr […])
Format: biochemical

IC50: 1640 nM
Structure (SMILES): Cc1coc2c1C(=O)C(=O)c1c-2ccc2c(C)cccc12 [compound 13, Tanshinone I]
